In patent US12486245B2, “Sequential multi-step flash nanoprecipitation for the formation of nanoparticles with high core loadings” (The Trustees of Princeton University, priority 2019, dated 2025):

Experiment: Water solubility
Format: physicochemical

CCCCOc1ccc(OCCCC)c2c1-c1nc3nc(nc4[nH]c([nH]c5nc(nc-2n1)-c1c(OCCCC)ccc(OCCCC)c1-5)c1c(OCCCC)ccc(OCCCC)c41)-c1c(OCCCC)ccc(OCCCC)c1-3 [762Pc, 1,4,8,11,15,18,22,25-Octabutoxy-29H,31H-phthalocyanine]
water solubility: negligible
